Measurements taken from PMC11304739, “Identification of novel bromodomain inhibitors of Trypanosoma cruzi bromodomain factor 2 (TcBDF2) using a fluorescence polarization-based high-throughput assay” (Antimicrobial Agents and Chemotherapy, 2024).
Like-named read-outs stand apart in the source and are kept apart here.

How the values were obtained:
[1] = target: recombinant TcBD2 (Trypanosoma cruzi, UniProt A0A2V2V5V1); experiment: Thermal shift / differential scanning fluorimetry (DSF); format: binding
Description: Recombinant TcBD2 was buffered in 10 mM HEPES, pH 7.5, and 300 mM NaCl and assayed in a 96-well plate at a final concentration of 5 µM in a 25-µL volume. Compounds were added at a final concentration between 0.1 and 50 µM to calculate dissociation constants. SYPRO Orange was added as a fluorescence probe at a dilution of 1:10,000. Excitation and emission filters for the SYPRO Orange dye were set to 465 and 590 nm, respectively. The temperature was raised with a step of 2°C per minute from 25°C to 96°C, and fluorescence readings were taken at each interval in a real-time Bio-Rad Opus CFX. Data were analyzed as previously described ([22]).
Fig 3 Kd calculation using DSF. Six concentrations of each compound (compounds named 1 to 7 indicated on top of each graph) were used (from 0.1 to 50 µM), and the melting temperatures of TcBD2 with each concentration of compound obtained were used to calculate the Kds. DMSO was used as a control sample. All thermal shift assays were performed at least in triplicate with reproducibility of parameters within ±10%. The change of melting temperature versus the log of the ligand concentration was plotted and fitted as described in the Materials and Methods section.

[2] = target: LdBD5.1; parameters: method as in PMID 37906637; conditions: cited from earlier work
[3] = test system: promastigotes from Leishmania mexicana; parameters: method as in PMID 37906637; conditions: cited from earlier work
[4] = test system: promastigotes from L. donovani; parameters: method as in PMID 37906637; conditions: cited from earlier work
[5] = test system: asexual form of Plasmodium falciparum; parameters: method as in PMID 29631126; conditions: cited from earlier work
[6] = test system: LdBDF5; parameters: method as in PMID 37906637; conditions: different affinities for first or second BD; cited from earlier work
[7] = test system: T. cruzi Dm28c epimastigotes expressing beta-galactosidase; experiment: Beta-galactosidase expressing parasite assay (epimastigotes); format: cell-based; conditions: Trypanosoma cruzi, 72 h
Description: T. cruzi Dm28c which expresses the Escherichia coli LacZ gene was used ([31][–][33]). Epimastigotes were incubated with the compounds (50, 25, 12.5, 6.25, and 3.125 µM). After 72 hours of treatment, the assays were developed by the addition of Chlorophenol red-β-D-galactopyranoside (100 µM final concentration) and Nonidet P-40 (0.1% final concentration). Plates were incubated for 2 to 4 hours at 37°C. Wells with β-galactosidase activity turned the media from yellow to red, and this was quantitated by absorbance at 595 nm using a Synergy HTX multi-detection microplate reader as reported previously ([31]). Normalized survival percentage was plotted against concentrations on Prism 9.0 GraphPad software. DMSO 50% was used as the 0% survival baseline. Each concentration was assayed in triplicates.
Fig 4 Trypanocidal effect on epimastigotes expressing beta-galactosidase. Epimastigotes were incubated for 72 hours with each compound (named 1 to 6 and indicated on top of each graph) at five concentrations (3.12 to 50 µM). Beta-galactosidase activity was measured, and normalized survival was plotted vs. log concentration. For IC50 calculation of iBET151 and Benznidazole (BZN) (used as positive controls), six concentrations (from 1.56 to 100 µM) were plotted and the curves were fitted using GraphPad Prism 9.0 [non-linear regression: log(inhibitor) vs. response -- Variable slope (four parameters)]. […]

[8] = target: TbBDF2; parameters: method as in PMID 26646171, PMID 35642518; conditions: cited from earlier work
[9] = target: TbBDF3; parameters: method as in PMID 26646171, PMID 35642518; conditions: cited from earlier work
[10] = test system: Dm28c epimastigotes; conditions: cited from earlier work
[11] = test system: TcBDF2; parameters: method as in PMID 27007774, PMID 35482332; conditions: cited from earlier work
[12] = test system: TcBDF3; parameters: method as in PMID 27007774, PMID 35482332; conditions: cited from earlier work
[13] = target: BD of TbBDF2; parameters: method as in PMID 29025975; conditions: ITC; cited from earlier work
[14] = target: second BD of TbBDF5; parameters: method as in PMID 29025975; conditions: ITC; cited from earlier work
[15] = test system: TbBDF3; parameters: method as in PMID 29025975; conditions: cited from earlier work
[16] = test system: first BD from TbBDF5; parameters: method as in PMID 29025975; conditions: cited from earlier work
[17] = test system: procyclic T. brucei; parameters: method as in PMID 29025975; conditions: growth of procyclic T. brucei; cited from earlier work
[18] = test system: Toxoplasma tachyzoites infecting HFF cells; parameters: method as in PMID 32119930; conditions: cited from earlier work
[19] = second round of experiments, six concentrations, read-out: IC50 (Figure S3, Kd calculation using DSF, second round of experiments)
[20] = thermal shift, compounds 0.1 to 50 µM, 5 µM TcBD2, read-out: Kd ± SD
[21] = read-out: IC50 against Dm28c epimastigotes

Sequence of recombinant TcBD2 (A0A2V2V5V1 entry or part of it): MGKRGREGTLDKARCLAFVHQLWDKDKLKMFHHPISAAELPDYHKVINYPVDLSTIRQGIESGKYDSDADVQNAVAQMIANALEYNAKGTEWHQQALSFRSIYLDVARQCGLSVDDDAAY

Cc1cc(C(=O)NC2CCc3nccn3C2)c2c(C)noc2n1 (stereo not shown) [Compound 3]
Kd [1, 19]: 2.14 µM | Kd [1, 20]: 2.41 ± 0.32 µM

COc1ccc(CCc2nc3cc(-c4c(C)noc4C)ccc3n2C[C@H](C)N2CCOCC2)cc1Cl [SGC-CBP30]
Kd [2]: 0.281 µM | IC50 [3]: 7.16 µM | IC50 [4]: 6.16 µM | selectivity index ([5]; calculated using a human HEK 293 cell line): around 7 | IC50 ([5]; in vitro): 3.2 µM | binding to LdBDF5 [6]: binds

COc1cc2c(cc1-c1c(C)noc1C)ncc1[nH]c(=O)n([C@H](C)c3ccccn3)c12 [iBET-151]
IC50 [7]: 7.75 µM | Kd [8]: 225 µM | Kd [9]: 175 µM | IC50 [10, 21]: 6.35 µM | binding to TcBDF2 [11]: bind | binding to TcBDF3 [12]: bind

CCCOc1ccn2c(C(C)=O)cc(-c3ccccc3S(C)(=O)=O)c2c1 [GSK2801]
Kd [13]: 15 µM | Kd [14]: 83 µM | binding to TbBDF3 [15]: does not bind | binding to first BD from TbBDF5 [16]: does not bind | IC50 [17]: 1.37 µM

Cc1sc2c(c1C)C(c1ccc(Cl)cc1)=N[C@@H](CC(=O)OC(C)(C)C)c1nnc(C)n1-2 [JQ1(+)]
binding to TbBDF2 [8]: do not bind at all | binding to TbBDF3 [9]: do not bind at all | IC50 [10, 21]: 7.14 µM | binding to TcBDF2 [11]: does not interact | binding to TcBDF3 [12]: binds

Cc1cc2c(NC(=O)CC(C)(C)CC(=O)O)cccc2nn1 [Compound 4]
Kd [1, 19]: 1.92 µM | Kd [1, 20]: 1.58 ± 0.42 µM

Cc1nnc2c3ccccc3c(N[C@@H](C)[C@H](c3ccccc3)N(C)C)nn12 [L-Moses]
IC50 [18]: ~0.6 µM

CCOC(=O)Nc1cc(-c2ccc(C)c(NS(C)(=O)=O)c2)nn2c(C)nnc12 [BSP, Bromosporine]
IC50 ([10]; read-out: IC50 against parasites): > 50 µM | binding to TcBDF2 [11]: bind | binding to TcBDF3 [12]: bind | binding to LdBDF5 [6]: binds

Cc1cc2c(NS(=O)(=O)c3c(C)noc3C)cccc2nn1 [Compound 5]
Kd [1, 19]: 3.36 µM | Kd [1, 20]: 3.52 ± 0.12 µM

CCn1nnc2c(N3CC[C@H](N)C3)nc(C)nc21 [Compound 2]
Kd [1, 19]: 1.55 µM | Kd [1, 20]: 1.33 ± 0.22 µM

Cc1cc2c(NC(=O)c3ccccc3C(=O)O)cccc2nn1 [Compound 6]
Kd [1, 19]: 3.11 µM | Kd [1, 20]: 3.31 ± 0.26 µM

CCn1nnc2c(N3CC[C@@H](N)C3)nc(C)nc21 [Compound 1]
Kd [1, 19]: 1.89 µM | Kd [1, 20]: 1.91 ± 0.31 µM

O=C(Cn1ccnc1[N+](=O)[O-])NCc1ccccc1 [BZN, Benznidazole]
IC50 [7]: 19.8 µM

CCn1cc(-c2cccc(C(F)(F)F)c2)c2sc(C(=N)NC3CCS(=O)(=O)CC3)cc2c1=O [I-BRD9]
binding to LdBDF5 [6]: binds

CC(=O)Nc1nc(C)c(S(=O)(=O)Nc2cccc3nnc(C)cc23)s1 [Compound 7]
Kd [1, 19]: 3.15 µM | Kd [1, 20]: 2.81 ± 0.31 µM
